Measurements from publication PMC5040747, “Preparation and Evaluation of a Novel Class of Amphiphilic Amines as Antitumor Agents and Nanocarriers for Bioactive Molecules” (Pharmaceutical Research, 2016).
Like-named read-outs stand apart in the source and are kept apart here.

Experiments:
A673 = assay: MTT cell proliferation assay, A673; format: cell-based; details: Homo sapiens, A673, Ewing's Sarcoma, read-out: Cell killing activity IC50
Protocol: (§1) Cells were plated in 96-well tissue culture plates at a density of 1 × 10^3 cells/well, allowed to attach 24 h, and then left untreated or treated with growth medium containing different concentrations of the tested RCn compounds previously dissolved in PBS. After different time periods the cell vitality was determined by MTT assay according to the manufacture’s instruction (Promega). Results are reported as the micromolar concentration of RCn reducing cell survival to 50% (IC50).

[1] = system: Human Gingival Fibroblasts; assay: MTT cell proliferation assay, normal fibroblasts; format: cell-based; details: Fibroblast, normal cells, read-out: Cell killing activity IC50
Protocol: as §1

S462.TY cells = assay: Interaction of RC16 with sialic acid (MTT); format: cell-based, human; details: 24 h
Protocol: Neuraminidase was used to cleave the sialic acid residues from the polysialilated glycoproteins and gangliosides of the tumor cell surface and the anticancer activity of RC16 was subsequently tested in comparison with the cells not exposed to Neuraminidase. Cells were seeded on 96 well plates at a density of 2 × 10^4 cells /plate and after 24 h were exposed to 50 IU/mL Neuraminidase Type VI from Clostridium Perfrigens (Sigma) for 3 h. Cells were washed 3 times with PBS and afterwards treated with RC16 . The effect on cell number was evaluated after 24 h by MTT assay in comparison with cells not treated with Neuraminidase. The RC16 –sialic acid interaction was also evaluated by adding sialic acid to the culture medium in stoichiometric amount with respect to RC16. In this experiment cells seeded on 96 well plates at a density of 2 × 10^4 cells /plate and after 24 h were treated with a mixture of RC16 : sialic acid (3 μM : 3 μM). After 24 h the effect on cell number was evaluated by MTT assay in comparison with cells treated with pure RC16 or pure sialic acid at the same concentration (3 μM) of the mixture.

[2] = system: human tumor xenografts (CHLA-20, SK-N-AS, A673, A549, S462TY); assay: In vivo efficacy, human tumor xenograft models
Protocol: Female athymic nude mice were subcutaneously injected with 5 × 10^6 human cancer cells in 150 μL mix of PBS and matrigel (2:1). The mice were then randomized into groups of six animals for each tumor type. This number was chosen because we sought a large effect size and to minimize numbers of mice. When tumors reached a mean volume of 150 mm^3, the animals were treated with RC16 or vehicle alone (PBS), given slowly through the tail vein at the dose of 1 mg/kg, 3 times a week for 3 weeks or orally gavaged at the dose of 2 mg/kg/day for 3 weeks.
Endpoint criteria included tumor volume > 2000 mm3, body weight loss ≥ 20%, unusual mouse behavior, lack of movement and poor posture. Tumor size was measured using digital calipers on alternate days and tumor volume was calculated using the following formula: a x b^2 π/6 where a is the longest diameter and b is the shortest diameter. Mice were also weighed and observed 3 times per week for signs of endpoint condition.

Q: CCCCCCCCCCCCCCC1CN2CCCN3CCCCCC132 (centres unmarked) [RC16, 2-tetradecyl-4,8-diazatricyclo[6.5.0.0^1,^4]tridecane] was tested. Which IC50 (A673; 24 h) did it give?
A: 0.8 µM

Q: And the IC50 (A673; 48 h)?
A: 0.65 µM

Q: And the IC50 ([1]; 24 h)?
A: 11.8 µM

Q: What about the IC50 ([1]; 48 h) of the same molecule?
A: 10.5 µM

Q: And the “Anticancer activity after Neuraminidase pre-treatment of cells” value (S462.TY cells; RC16 3 μM, versus cells not exposed to Neuraminidase)?
A: decreased the anticancer activity of RC16

Q: What about the “Anticancer activity with sialic acid added to culture medium” value (S462.TY cells; RC16 : sialic acid 3 μM : 3 μM, versus pure RC16) of the same molecule?
A: decreased the RC16 anticancer activity

Q: And the “Antitumor activity (inhibition of tumor growth, RTV)” value ([2]; 1 mg/kg i.v. 3 times a week for 3 weeks or 2 mg/kg/day oral gavage for 3 weeks)?
A: strong antitumor activity

Q: What about the “Weight loss or signs of toxicity during treatment” value ([2]; i.v. 1 mg/kg 3 times a week or gavage 2 mg/kg/day, 3 weeks) of the same molecule?
A: No weight loss or signs of toxicity
